# Source: publication PMC2365101, “Anti-Inflammatory Activity of (Polyphenolic)-Sulfonates and Their Sodium Salts in Rodents” (Metal-Based Drugs, 1998)
# Legend:
# [1] = test system: CF1 male mice, LPS Salmonella abortus equi induced death; experiment: Protection against septic shock (LPS induced endotoxic shock); assay type: in vivo; settings: for Percent Survival at 52 hr: LPS 10 mg/kg, CF1 male mice, N=6; for protection from LPS induced death: 16 mg/kg
# Source text: Few reports in the literature indicate interaction at these receptor sites other than by peptides or antibodies. […] Blocking these receptors is desirable because the entire inflammation cascade of events is triggered by the early release of TNFa and IL-1. […] Radioisotopes were obtained from New England Nuclear [Dupont, Boston, MA] and substrates and co- factors were obtained from Sigma Chemical Co. [St. Louis, MO]. […] Cell lines were obtained from American Type Culture Collection [Rockville, MD]. In Vivo Tests Anti-inflammatory screen in mice: Male CF male mice weighing 28-32g obtained from Jackson Lab. [Bar Harbor, […]] were used to screen agents at 8 or 16 mg/kg intraperitoneal [I.P.] x 2 administered 3 hr and 30 min prior to administering the irritant, according to Winter's protocol. Evaluation of the induced edema was made by injecting 2% carrageenan in 0.9% saline into the plantar region of the foot. The opposite foot injected with 0.9% isotonic saline was used as a base line. […] Salmonella abortus equi [Lot # 69F4003] […] Drugs from 2 to 16 mg/kg, I.P. were administered 2 hr prior and 2 hr post-injection of the LPS and then subsequently for every 24 hr for the length ofthe animals' lives. Deaths were recorded every 12 hr and continued for 96 hr. […] In vitro TNFa andIL-1 Measurements and Cellular Regulation IC-21 mouse macrophages were maintained in RPMI-1640 + 10% FCS + P/S. After the cells had grown to confluency, E. coli LPS at 10 Ixg/ml was added to the medium. Agents were incubated at 12.5 to 100 µM final concentration for 18 hr. The medium (100 btl) was collected for TNFCt determinations. Interleukin-1 [IL-1] release was determined using P388D1 cells which were maintained in RPMI-1640 + 10% FCS + P/S. The L929 bioassay was used to quantitate the TNF and the IL-1 levels. The L929 mouse fibroblasts were grown in DMEM + 10% FCS + P/S to confluency in 96 well plates and incubated with 100 tl ofmedium from […] or P388D cells after 18 hr. The cells were stained with 0.2% crystal violet in 20% MeOH and read at 580 nm using a Molecular Devices scanner (SOFT-max program). High Affinity Binding to Receptors on L929-106 Cells Two laCi of 125I-TNFct (human recombinant, 30 mCi/tg New England Nuclear) or 125I-IL-1 (70-120[.t Ci/lxg,New England Nuclear) was added to confluency L929 cells for 90 min or 5 hr, respectively with 25, 50 and 100 tM of the test compounds 12]. The cells were washed repeatedly with isotonic saline, pH.7.2 and aliquots counted. Prostaglandin cylcooxygenase activity Mouse J774AI macrophages maintained in Dulbecco's modified Eagle's medium + 15% FCS + P/S. Cells (5 x 106) were incubated with agents (5 to 100 ].tM final concentration) and 3H-arachidonic acid (100 Ci/mol) for 60 min at 37C in a CO2 incubator. The reaction was terminated with 2N HCI, the mixture extracted 2 X with ether, and the organic layer evaporated.
# [2] = test system: RPMI 1788 leukocytes adhesion to L929 fibroblasts; experiment: Adhesion of human leukocytes RPMI-1788 to confluent L929 fibroblasts; assay type: cell-based; settings: for Adhesion, Percent of Control: N=6
# [3] = target: T1, IL-2 high affinity receptor on HUT78 T lymphoma cell membrane (Homo sapiens, UniProt P01589+P14784); experiment: 125I-IL-2 high affinity binding to HuT78 T lymphoma cells; settings: for 125I-IL-2 binding, Percent of Control: N=6; for reduction of IL-2 high affinity binding: 5 hr
# T1 construct: host or cells: HuT78 T lymphoma cells
# T1 sequence (P01589 22-272): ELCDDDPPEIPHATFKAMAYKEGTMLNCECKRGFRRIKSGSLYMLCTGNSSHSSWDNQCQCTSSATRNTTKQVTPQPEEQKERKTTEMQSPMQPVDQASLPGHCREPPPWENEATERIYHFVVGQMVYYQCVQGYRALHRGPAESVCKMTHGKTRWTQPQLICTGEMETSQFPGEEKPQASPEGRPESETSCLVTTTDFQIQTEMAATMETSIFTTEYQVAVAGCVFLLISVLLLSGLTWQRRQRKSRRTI
# T1 sequence (P14784 27-551): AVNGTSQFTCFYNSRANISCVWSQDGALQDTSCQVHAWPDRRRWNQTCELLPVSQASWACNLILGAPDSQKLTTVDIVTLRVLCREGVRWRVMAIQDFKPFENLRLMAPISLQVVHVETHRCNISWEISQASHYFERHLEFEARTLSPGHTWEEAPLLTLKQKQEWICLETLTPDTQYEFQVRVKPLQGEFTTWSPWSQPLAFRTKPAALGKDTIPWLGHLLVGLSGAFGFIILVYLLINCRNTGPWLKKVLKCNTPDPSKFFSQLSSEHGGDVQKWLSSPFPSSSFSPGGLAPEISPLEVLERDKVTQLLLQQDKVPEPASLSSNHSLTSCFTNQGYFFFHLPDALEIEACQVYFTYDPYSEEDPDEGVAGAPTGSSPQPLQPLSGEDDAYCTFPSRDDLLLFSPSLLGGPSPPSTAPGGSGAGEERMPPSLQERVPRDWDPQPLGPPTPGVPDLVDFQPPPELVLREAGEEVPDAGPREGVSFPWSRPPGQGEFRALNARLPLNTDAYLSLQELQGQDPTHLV
# [4] = test system: J774 A1 mouse macrophages adhesion to L929 fibroblasts; experiment: Adhesion of J-774 A1 mouse macrophages to confluent L929 fibroblasts; assay type: cell-based; settings: for Adhesion, Percent of Control: N=6
Compound,Percent Survival at 52 hr ([1]; 8 mg/Kg I.P.) [%],Percent Survival at 52 hr ([1]; 16 mg/Kg I.P.) [%],protection from LPS induced death [1] [%],"Adhesion, Percent of Control ([2]; 12.5 μM, 2 Hours)","Adhesion, Percent of Control ([2]; 12.5 μM, 5 Hours)","Adhesion, Percent of Control ([2]; 25 μM, 2 Hours)","Adhesion, Percent of Control ([2]; 25 μM, 5 Hours)","Adhesion, Percent of Control ([2]; 50 μM, 2 Hours)","125I-IL-2 binding, Percent of Control ([3]; 5 μM, 2 Hours)","125I-IL-2 binding, Percent of Control ([3]; 5 μM, 5 Hours)","125I-IL-2 binding, Percent of Control ([3]; 12.5 μM, 2 Hours)","125I-IL-2 binding, Percent of Control ([3]; 12.5 μM, 5 Hours)","125I-IL-2 binding, Percent of Control ([3]; 25 μM, 2 Hours)","125I-IL-2 binding, Percent of Control ([3]; 25 μM, 5 Hours)","125I-IL-2 binding, Percent of Control ([3]; 50 μM, 2 Hours)","125I-IL-2 binding, Percent of Control ([3]; 50 μM, 5 Hours)",reduction of IL-2 high affinity binding ([3]; 50 μM) [%],"Adhesion, Percent of Control ([4]; 5 μM, 2 Hours)","Adhesion, Percent of Control ([4]; 5 μM, 5 Hours)","Adhesion, Percent of Control ([4]; 5 μM, 90 min)",also measured
"Pentosan sulfate [Pentosan polysulfate, reference compound]",67,83,83,83+5% of Control,82+5% of Control,116+6% of Control,82+6% of Control,147+6% of Control,362 + 9% of Control,148 + 5% of Control,188 + 5% of Control,89 + 6% of Control,123 + 7% of Control,81 + 6% of Control,104 + 6% of Control,55 + 4% of Control,45,75+7% of Control,103+5% of Control,329 + 12% of Control,"Adhesion, Percent of Control ([4]; 12.5 μM, 2 Hours): 53 + 6% of Control; Adhesion, Percent of Control ([4]; 12.5 μM, 5 Hours): 108+7% of Control; Adhesion, Percent of Control ([4]; 12.5 μM, 90 min): 363 + 16% of Control; reduction of J774A1 macrophage adhesion ([4]; 12.5 μM, 2 hr): 47%; Adhesion, Percent of Control ([4]; 25 μM, 2 Hours): 66+ 5% of Control; Adhesion, Percent of Control ([4]; 25 μM, 5 Hours): 169+6% of Control; Adhesion, Percent of Control ([4]; 25 μM, 90 min): 260 + 9% of Control; Adhesion, Percent of Control ([4]; 50 μM, 2 Hours): 110+6% of Control; Adhesion, Percent of Control ([4]; 50 μM, 5 Hours): 187 + 7% of Control; Adhesion, Percent of Control ([4]; 50 μM, 90 min): 176 +6% of Control"
COc1c2cc(S(=O)(=O)[O-])cc1Cc1cc(S(=O)(=O)[O-])cc(c1OC)Cc1cc(S(=O)(=O)[O-])cc(c1OC)Cc1cc(S(=O)(=O)[O-])cc(c1OC)Cc1cc(S(=O)(=O)[O-])cc(c1OC)Cc1cc(S(=O)(=O)[O-])cc(c1OC)C2.[Na+].[Na+].[Na+].[Na+].[Na+].[Na+] [Compound 6],50,100,100,125 + 5% of Control,92 + 4% of Control,100 + 6% of Control,95 + 5% of Control,108 + 6% of Control,142 + 6% of Control,100 + 6% of Control,115 + 5% of Control,92 + 6% of Control,85 + 5% of Control,78 + 5% of Control,81 + 4% of Control,55 + 4% of Control,45,123 + 6% of Control,88 + 5% of Control,137 + 6% of Control,"Adhesion, Percent of Control ([2]; 5 μM, 60 min): 46 + 4% of Control; Adhesion, Percent of Control ([2]; 5 μM, 90 min): 62 + 5% of Control; Adhesion, Percent of Control ([2]; 12.5 μM, 60 min): 49 + 6% of Control; Adhesion, Percent of Control ([2]; 12.5 μM, 90 min): 55 + 6% of Control; Adhesion, Percent of Control ([2]; 25 μM, 60 min): 30 + 3% of Control; Adhesion, Percent of Control ([2]; 25 μM, 90 min): 71 + 5% of Control; Adhesion, Percent of Control ([2]; 50 μM, 5 Hours): 88+ 7% of Control; Adhesion, Percent of Control ([2]; 50 μM, 60 min): 41 + 5% of Control; reducing the adhesion of human leukocytes ([2]; 5 to 50 μM, at 2 and 5 hr): not effective; reducing significantly the adhesion of human leukocytes ([2]; 5 to 50 μM, at 60 and 90 min): effective; Adhesion, Percent of Control ([4]; 12.5 μM, 2 Hours): 77 + 6% of Control; Adhesion, Percent of Control ([4]; 12.5 μM, 5 Hours): 109 + 6% of Control; Adhesion, Percent of Control ([4]; 12.5 μM, 90 min): 133 + 5% of Control; Adhesion, Percent of Control ([4]; 25 μM, 2 Hours): 118 + 7% of Control; Adhesion, Percent of Control ([4]; 25 μM, 5 Hours): 131 + 6% of Control; Adhesion, Percent of Control ([4]; 25 μM, 90 min): 128 + 7% of Control; Adhesion, Percent of Control ([4]; 50 μM, 2 Hours): 122 + 6% of Control; Adhesion, Percent of Control ([4]; 50 μM, 5 Hours): 119 + 5% of Control; Adhesion, Percent of Control ([4]; 50 μM, 90 min): 103 + 7% of Control"
